How the values were obtained:
YAP = YAP phosphorylation inhibitory action in SKOV3 (HTRF); assay type: cell-based, human; settings: 10 μM, 1 hr, non-treatment 100%
Method: Human ovarian cancer cell line SKOV3 (manufactured by DS Pharma Biomedical Co., Ltd.) was precultured using a 15% FBS-containing McCoy's 5a medium (manufactured by Sigma-Aldrich) (single layer culture). The above-mentioned cells in the logarithmic growth phase were washed with PBS. A 0.25% (w/v) trypsin-1 mmol/L ethylenediaminetetraacetic acid (EDTA) solution (manufactured by FUJIFILM Wako Pure Chemical Corporation) was added and the adherent cells were incubated at 37° C. for 3 min and detached. The above-mentioned medium was added, and the cells were centrifuged and resuspended in the same medium.
According to the method of patent document 1 (WO 2014/017513), a composition of 10% FBS-containing DMEM medium (Phenol-red free, manufactured by FUJIFILM Wako Pure Chemical Corporation) containing 0.015% (w/v) deacylated gellan gum (KELCOGEL CG-LA, manufactured by SANSHO Co., Ltd.) was prepared using FCeM-series Preparation Kit (manufactured by FUJIFILM Wako Pure Chemical Corporation). Then, various cells prepared above were suspended in the above-mentioned medium composition (3D culture conditions) added with deacylated gellan gum or a medium without the addition (2D culture conditions), and seeded on a 50 μL/well (manufactured by Corning Incorporated, a 96 well flat bottom plate, #3585, 2D culture conditions) or 25 μL/well (manufactured by Corning Incorporated, 96 well low adhesion flat bottom plate, #3474) at 100000 cells/well. The plate was allowed to stand at 37° C. in a 5% CO2 incubator, and the compound of the present invention diluted with the medium at 2 or 6 times the final concentration, DMSO, or the medium alone was added to the plate 3 hr after the seeding at 50 μL/well (2D culture conditions) or 5 μL/well (3D culture conditions) to make the final concentration of each compound 10 μM. After culture at 37° C. in a 5% CO2 incubator for 1 hr, the supernatant was aspirated, supplemented Lysis buffer (1-fold concentration, manufactured by Cisbio, YAP-total kit or YAP phospho-S27 kit) (50 μL) was added under 2D culture conditions, and supplemented Lysys buffer (4-fold concentration) (10 μL) was added to the culture supernatant under 3D conditions, and the mixture was stirred by a plate shaker for 30 min. Thereafter, the plate was centrifuged, 16 μL of the supernatant was transferred to a 384-well white plate (Corning, #4512), and each antibody solution (pYAP d2 antibody or Total-YAP d2 antibody, and pYAP Cryptate antibody or Total-YAP Cryptate antibody) included in the kit was added at 4 μL/well in total, and the mixture was allowed to stand at room temperature overnight. As a blank control, pYAP Cryptate antibody or Total-YAP Cryptate antibody alone was added to cells free of stimulation with compound and the mixture was treated in the same manner. The next day, the wavelengths at 665 nm and 615′ nm were measured in the HTRF mode of EnVision (manufactured by PerkinElmer).
The obtained signal was calculated as follows. Ratio=signal (665 nm)/signal (615 nm)×10000, ΔR=Signal(Ratio)−Background fluorescence, and the relative phosphorylated YAP amount or total YAP amount for each compound when ΔR of the compound non-addition group (non-treatment) is 100% is shown in Tables 7 and 8 (2D culture), and Tables 9 and 10 (3D culture). From the results, it was shown that the compound of the present zo invention has a YAP phosphorylation inhibitory action under both 2D and 3D culture conditions.

LATS2 = biological target: T1, LATS2 (Homo sapiens, UniProt Q9NRM7); experiment: Kinase inhibitory activity against LATS2 (ADP quantification); assay type: biochemical; settings: ATP 400 μM, read-out: kinase inhibitory rate; for inhibition at 1 µM: final concentration 1000 nM
T1 construct: purchased Carna Biosciences
T1 sequence (Q9NRM7 1-1088): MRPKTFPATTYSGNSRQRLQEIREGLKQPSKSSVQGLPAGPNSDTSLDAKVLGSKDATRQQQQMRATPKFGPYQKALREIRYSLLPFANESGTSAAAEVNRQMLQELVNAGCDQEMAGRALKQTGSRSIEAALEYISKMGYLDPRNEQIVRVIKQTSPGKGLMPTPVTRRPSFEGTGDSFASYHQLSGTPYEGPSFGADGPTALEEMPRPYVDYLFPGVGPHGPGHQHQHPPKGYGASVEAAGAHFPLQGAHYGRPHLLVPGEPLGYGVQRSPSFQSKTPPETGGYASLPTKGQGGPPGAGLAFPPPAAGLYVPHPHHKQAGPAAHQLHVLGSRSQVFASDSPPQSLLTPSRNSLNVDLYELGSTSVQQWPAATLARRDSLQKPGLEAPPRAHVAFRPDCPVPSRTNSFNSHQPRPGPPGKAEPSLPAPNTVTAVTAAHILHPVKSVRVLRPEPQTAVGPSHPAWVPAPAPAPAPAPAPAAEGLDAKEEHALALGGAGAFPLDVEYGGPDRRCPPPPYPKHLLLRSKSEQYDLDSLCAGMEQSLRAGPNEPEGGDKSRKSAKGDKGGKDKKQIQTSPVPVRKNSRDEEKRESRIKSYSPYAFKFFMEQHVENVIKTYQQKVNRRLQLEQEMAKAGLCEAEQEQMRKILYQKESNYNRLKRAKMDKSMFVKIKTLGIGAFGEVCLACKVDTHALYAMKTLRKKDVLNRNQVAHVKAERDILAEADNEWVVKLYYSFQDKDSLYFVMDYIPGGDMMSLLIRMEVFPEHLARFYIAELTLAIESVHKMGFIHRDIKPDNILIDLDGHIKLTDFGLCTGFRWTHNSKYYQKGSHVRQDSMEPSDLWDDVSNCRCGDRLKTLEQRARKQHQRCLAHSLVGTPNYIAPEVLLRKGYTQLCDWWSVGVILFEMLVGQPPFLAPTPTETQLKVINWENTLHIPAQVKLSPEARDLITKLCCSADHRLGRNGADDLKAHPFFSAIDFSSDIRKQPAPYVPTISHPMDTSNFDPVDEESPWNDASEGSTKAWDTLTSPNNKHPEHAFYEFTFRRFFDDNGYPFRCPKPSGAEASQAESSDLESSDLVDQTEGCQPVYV
Method: (§1) Evaluation of the inhibitory activity (calculation of kinase inhibitory rate) of the compound of the present invention against LATS1 and LATS2 (manufactured by Carna Biosciences) was performed. The activity was measured using the Kinase Assay method described below. The test concentration of the compound of the present invention was set such that the final concentration was 100 nM or 1000 nM.
(§2) As the analysis method of the data, the mean signal of the control well containing reaction components other than the compound of the present invention was set to 0% inhibition, the mean signal without enzyme addition was set to 100% inhibition, and the inhibition rate was calculated from the mean signal of 2 wells of each compound.
(§3) 2 μL of a compound of the present invention solution at 2.5-fold concentration, 1 μL of substrate at 5-fold concentration (SGKtide: NH2-CKKRNRRLSVA-COOH, manufactured by SignalChem), ATP (manufactured by Sigma-Aldrich), MgCl2 (manufactured by FUJIFILM Wako Pure Chemical Corporation) solution (final concentration 10 μM, 400 μM and 5 mM, respectively), and 2 μL of kinase solution at 2.5-fold concentration (final concentration of LATS1 or LATS2 5 μg/mL), each prepared with assay buffer (20 mM HEPES, 0.01% Triton X-100, 2 mM DTT, 50 μg/mL BSA, pH 7.5), were mixed in the wells of a polypropylene 384-well plate (manufactured by Greiner Bio-One, #784900) and reacted at room temperature for 5 hr. To the solution was added 5 μL detection solution [Fluorospark (registered trade mark) Kinase/ADP Multi-Assay Kit; manufactured by FUJIFILM Wako Pure Chemical Corporation], and the mixture was reacted at room temperature for 30 min. Successively, 5 μL of a reaction quenching liquid [Fluorospark (registered trade mark) Kinase/ADP Multi-Assay Kit; manufactured by FUJIFILM Wako Pure Chemical Corporation] was added to discontinue the reaction. Thereafter, the ADP concentration of the reaction solution was quantified by EnSpire (manufactured by PerkinElmer) to detect the kinase reaction.

LATS1 = biological target: T2, LATS1 (Homo sapiens, UniProt O95835); experiment: Kinase inhibitory activity against LATS1 (ADP quantification); assay type: biochemical; settings: ATP 400 μM, read-out: kinase inhibitory rate; for inhibition at 1 µM: final concentration 1000 nM; for inhibition at 0.1 µM: final concentration 100 nM
T2 construct: purchased Carna Biosciences
T2 sequence (O95835 1-1130): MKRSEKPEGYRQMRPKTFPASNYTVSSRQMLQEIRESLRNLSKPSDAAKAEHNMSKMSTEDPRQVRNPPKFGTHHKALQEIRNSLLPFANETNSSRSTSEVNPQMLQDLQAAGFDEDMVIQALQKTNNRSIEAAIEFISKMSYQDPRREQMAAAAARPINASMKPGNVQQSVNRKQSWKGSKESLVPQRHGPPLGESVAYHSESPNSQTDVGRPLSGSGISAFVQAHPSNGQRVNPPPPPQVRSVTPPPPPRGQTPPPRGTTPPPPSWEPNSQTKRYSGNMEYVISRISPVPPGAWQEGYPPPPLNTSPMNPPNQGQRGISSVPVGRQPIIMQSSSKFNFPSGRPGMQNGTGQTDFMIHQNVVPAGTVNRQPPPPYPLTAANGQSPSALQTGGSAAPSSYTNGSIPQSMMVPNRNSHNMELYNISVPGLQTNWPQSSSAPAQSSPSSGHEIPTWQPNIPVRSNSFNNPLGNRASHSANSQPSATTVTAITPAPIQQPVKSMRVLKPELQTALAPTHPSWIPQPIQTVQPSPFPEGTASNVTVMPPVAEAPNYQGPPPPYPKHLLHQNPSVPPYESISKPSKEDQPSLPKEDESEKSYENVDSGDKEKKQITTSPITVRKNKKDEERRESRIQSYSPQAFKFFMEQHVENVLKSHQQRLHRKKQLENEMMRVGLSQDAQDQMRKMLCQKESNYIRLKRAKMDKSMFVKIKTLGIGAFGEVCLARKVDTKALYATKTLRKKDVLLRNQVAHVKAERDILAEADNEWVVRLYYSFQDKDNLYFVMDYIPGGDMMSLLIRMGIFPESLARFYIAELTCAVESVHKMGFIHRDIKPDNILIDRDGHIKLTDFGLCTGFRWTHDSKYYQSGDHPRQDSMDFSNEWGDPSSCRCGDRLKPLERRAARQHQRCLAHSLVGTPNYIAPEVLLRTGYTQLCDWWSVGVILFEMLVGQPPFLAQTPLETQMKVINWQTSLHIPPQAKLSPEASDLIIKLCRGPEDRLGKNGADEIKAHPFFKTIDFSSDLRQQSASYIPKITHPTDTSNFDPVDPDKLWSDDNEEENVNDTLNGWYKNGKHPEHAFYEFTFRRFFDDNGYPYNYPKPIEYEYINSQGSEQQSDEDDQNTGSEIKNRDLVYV
Method: as §1, §2, §3

inhibition at 1 µM (LATS2) [%] | inhibition at 1 µM (LATS1) [%] | inhibition at 0.1 µM (LATS1) [%] | inhibition at 0.1 µM (LATS2; final concentration 100 nM) [%] | SMILES | phosphorylated YAP amount (%) (YAP; 2D culture conditions) | total YAP amount (%) (YAP; 2D culture conditions) | phosphorylated YAP amount (%) (YAP; 3D culture conditions) | total YAP amount (%) (YAP; 3D culture conditions)
 |  |  |  | CC/C(=N\NC(=O)[C@@H](C)Nc1cncc(C(F)(F)F)c1)c1ccc(O)c(C)c1O [A-013] | 42 | 91 | 49 | 96
 |  |  |  | CC/C(=N\NC(=O)[C@@H](C)Nc1ccc(Cl)nc1)c1ccc(O)c(C)c1O [A-012] | 19 | 87 | 23 | 103
 |  |  |  | CC/C(=N\NC(=O)[C@@H](C)Nc1ccc(F)nc1)c1ccc(O)c(C)c1O [A-010] | 11 | 94 | 20 | 114
 |  |  |  | CC/C(=N\NC(=O)[C@@H](C)Nc1cncc(Cl)c1)c1ccc(O)c(C)c1O [A-011] | 46 | 91 | 55 | 98
≥ 40 | ≥ 40 |  |  | CC/C(=N\NC(=O)C(C)Oc1cccnc1)c1ccc(O)c(C)c1O (stereo not drawn) [C-001, (E)-N′-(1-(2,4-dihydroxy-3-methylphenyl)propylidene)-2-(pyridin-3-yloxy)propanehydrazide] |  |  |  | 
≥ 40 | ≥ 40 | ≥ 40 |  | CC/C(=N\NC(=O)[C@@H](C)Nc1ccc2cccnc2c1)c1ccc(O)c(C)c1O [A-019, (R,E)-N′-[1-(2,4-dihydroxy-3-methylphenyl)propylidene]-2-(quinolin-7-ylamino)propanehydrazide] |  |  |  | 
≥ 40 | ≥ 40 |  |  | CC/C(=N\NC(=O)NCc1cccnc1)c1ccc(O)c(C)c1O [B-001, (E)-2-(1-(2,4-dihydroxy-3-methylphenyl)propylidene)-N-(pyridin-3-ylmethyl)hydrazine-1-carboxamide] |  |  |  | 
≥ 40 | ≥ 40 | ≥ 40 | ≥ 40 | CC/C(=N\NC(=O)[C@@H](C)Nc1cncnc1)c1ccc(O)c(C)c1O [A-017, (R,E)-N′-[1-(2,4-dihydroxy-3-methylphenyl)propylidene]-2-(pyrimidin-5-ylamino)propanehydrazide] |  |  |  | 
 |  |  |  | CC/C(=N\NC(=O)C(CC)Nc1cccnc1)c1ccc(O)c(C)c1O (stereo not drawn) [A-005] | 27 | 94 | 30 | 102
 |  |  |  | CC/C(=N\NC(=O)CNc1cccnc1)c1ccc(O)c(C)c1O [A-002] | 50 | 85 | 78 | 100
 |  |  |  | CC/C(=N\NC(=O)[C@@H](C)Nc1cncc(F)c1)c1ccc(O)c(C)c1O [A-007R] | 8 | 98 | 15 | 108
